From PMC3933800, “Synthesis, Anti-Inflammatory and Anti- Nociceptive Activities and Cytotoxic Effect of Novel Thiazolidin-4-ones Derivatives as Selective Cyclooxygenase (COX-2) Inhibitors” (Iranian Journal of Basic Medical Sciences, 2013)

Columns and labels:
[1] = system: Caco-2 (human colorectal cancer); assay: MTT cytotoxicity assay, Caco-2; assay type: cell-based; settings: means of three experiments, 24 hr, read-out: IC50 Caco-2 (anti-proliferative activity)
Method: (§1) Human tumor cell lines of two different histological origins were used: Caco-2 (human colorectal cancer) and MCF-7 (human breast cancer) which were purchased from the National Cell bank of Pasteur Institute of Iran, Tehran, Iran.
(§2) Stock cell cultures were grown in RPMI 1640 medium (Gibco, USA) supplemented with 10% fetal bovine serum (FBS) and 100 unit per ml of penicillin-streptomycin (Sigma, USA) at 37°C in humidified incubator with 5% CO2 atmosphere. After three day incubation, the cells were detached using 0.25% Trypsin-0.05% EDTA solution (Biogene, Iran), and resuspended in RPMI 1640 medium containing 10% FBS. Cell count and viability was determined by Trypan blue staining followed by hemocytometry.
(§3) After incubation periods, 3-(4,5-Dimethylthiazol-2-yl)-2,5-diphenyltetrazolium bromide , MTT (Sigma, USA) was added to each well at the concentration of 0.5 mg/ml. Subsequently, microtiter plate was incubated for an additional 3 hr at 37°C and each medium was then removed prior to the addition of dimethyl sulfoxide to dissolve the formazan crystal formed by viable cells.

Caco-2 cells = assay type: cell-based; settings: IC50 concentration, 24 hr; untreated control 9.9
Method: (§4) A suspension of untreated Caco-2 or MCF-7cells (1×10^6 cells/ml) was used as negative control. Both control and test samples of cell cultures were incubated for 24 hr at 37°C and 5% CO2 atmosphere. After 24 hr incubation, adherent cells were collected, washed three times with phosphate-citrate buffer (0.2 M, pH 7.8) and fixed for 24 hr with cool ethanol at 4°C. Propidium iodide was then added to a final concentration of 50 µg/ml for DNA staining and the cells were incubated and light protected at room temperature for 3 hr. The fluorescence of the cells was analyzed in a FACScan flow cytometer (Becton Dickinson, USA). The obtained cytometric data were analyzed using WinMDI 2.8 software (The Scripps Research Institute, USA).

MCF-7 cells = assay: Apoptosis assay (propidium iodide flow cytometry, sub-diploid cells), MCF-7; assay type: cell-based, human; settings: IC50 concentration, 24 hr; untreated control 12.26
Method: as §4

[2] = system: MCF-7 (human breast cancer); assay: MTT cytotoxicity assay, MCF-7; assay type: cell-based; settings: MCF7, means of three experiments, 24 hr, read-out: IC50 MCF-7 (anti-proliferative activity)
Method: as §1, §2, §3

mice [3] = assay: Xylene-induced ear edema test; assay type: in vivo, BALB/c mice; settings: Mus musculus, IP 30 min before xylene, ears weighed after 2 hr
Method: (§5) Animal experiments were carried out using 20-30 g male BALB/c mice purchased from Razi Institute, Mashhad, Iran. Animals were kept in plastic cages at room temperature of 21±2°C and 12 hr light/dark cycle. All experiments were performed according to the National Institute of Health guidelines for the care and use of laboratory animals and to the European Community Directive for the Care and use of Laboratory Animals of 1986 (86/609/EEC), and approved by our Institution’s Animal Care Committee.
The effect of the analogues against acute inflammation was studied using xylene-induced ear edema test in mice.
Thirty minutes later, edema was induced in each group by applying 0.03 ml of xylene to the inner surface of the right ear. After 2 hr, the mice were sacrificed under ether anesthesia and both ears were removed, sized and weighed. The increase in weight caused by the irritant was measured by subtracting the weight of the untreated left ear section from that of the treated right ear sections ([12]).

mice [4] = assay: Acetic acid-induced writhing test; assay type: in vivo, BALB/c mice; settings: Mus musculus, IP, acetic acid 0.7% 1 hr after compound, writhing counted 30 min
Method: as §5
The nociceptive responses in mice were investigated using writhing test. […] The number of abdominal constrictions (writhing episode) seen in treated animals was counted during a 30 min period ([12]). Celecoxib and normal saline was respectively used as positive and negative control.

ovine COX-1 = molecular target: T1, ovine COX-1 (Ovis aries, UniProt P05979); assay: biochemical; settings: mean of two determinations
T1 construct: purchased Cayman Chemical Company 760111
T1 sequence (P05979 25-600): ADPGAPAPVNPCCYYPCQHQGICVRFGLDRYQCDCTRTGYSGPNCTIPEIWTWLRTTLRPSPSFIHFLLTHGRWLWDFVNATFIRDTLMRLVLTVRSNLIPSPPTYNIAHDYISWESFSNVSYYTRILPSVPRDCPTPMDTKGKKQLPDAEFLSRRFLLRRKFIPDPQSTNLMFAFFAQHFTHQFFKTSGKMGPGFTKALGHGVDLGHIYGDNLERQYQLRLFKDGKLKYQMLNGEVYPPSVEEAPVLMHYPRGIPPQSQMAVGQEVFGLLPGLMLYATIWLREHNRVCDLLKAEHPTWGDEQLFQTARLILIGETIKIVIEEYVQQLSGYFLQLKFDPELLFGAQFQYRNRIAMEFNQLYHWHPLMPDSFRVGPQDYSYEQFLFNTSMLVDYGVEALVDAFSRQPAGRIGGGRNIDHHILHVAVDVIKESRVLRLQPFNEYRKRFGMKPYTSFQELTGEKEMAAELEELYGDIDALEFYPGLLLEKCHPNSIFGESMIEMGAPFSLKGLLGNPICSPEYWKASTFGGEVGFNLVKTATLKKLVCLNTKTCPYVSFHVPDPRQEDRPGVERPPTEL
Source text: (§6) The same kit for determination of COX-1 and COX-2 inhibition was used by us previously ([11]).

ovine COX-2 = molecular target: T2, ovine COX-2 (Ovis aries, UniProt P79208); assay: biochemical; settings: mean of two determinations
T2 construct: purchased Cayman Chemical Company 760111
T2 sequence (P79208 17-603): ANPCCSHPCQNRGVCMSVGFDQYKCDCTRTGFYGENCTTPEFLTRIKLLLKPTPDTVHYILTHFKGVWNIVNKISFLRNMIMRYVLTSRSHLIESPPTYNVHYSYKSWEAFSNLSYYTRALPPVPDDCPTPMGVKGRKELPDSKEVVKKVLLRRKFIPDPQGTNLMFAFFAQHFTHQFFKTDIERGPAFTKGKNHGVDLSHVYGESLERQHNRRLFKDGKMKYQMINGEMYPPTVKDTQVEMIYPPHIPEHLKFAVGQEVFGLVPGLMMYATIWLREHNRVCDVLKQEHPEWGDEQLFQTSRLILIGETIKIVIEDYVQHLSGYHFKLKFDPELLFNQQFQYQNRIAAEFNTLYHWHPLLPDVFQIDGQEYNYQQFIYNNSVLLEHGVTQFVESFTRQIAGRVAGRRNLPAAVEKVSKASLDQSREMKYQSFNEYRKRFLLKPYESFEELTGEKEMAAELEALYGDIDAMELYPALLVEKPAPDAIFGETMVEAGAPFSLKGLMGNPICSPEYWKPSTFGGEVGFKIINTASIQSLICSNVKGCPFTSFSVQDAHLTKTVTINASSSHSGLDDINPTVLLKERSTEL
Source text: as §6

IC50 (ovine COX-1) [µM] | IC50 (ovine COX-2) [µM] | melting point [°C] | SMILES | IC50 [1] [µM] | Apoptosis% (percent sub-diploid cells), Caco-2 (Caco-2 cells) [%] | Apoptosis% (percent sub-diploid cells), MCF-7 (MCF-7 cells) [%] | IC50 [2] [µM] | ED50 (mice [3]) [mg/kg] | ED50 (mice [4]) [mg/kg]
– | – | – | Cc1ccc(-c2cc(C(F)(F)F)nn2-c2ccc(S(N)(=O)=O)cc2)cc1 [Celecoxib, celecoxib, reference compound] | 50.1 | 60 | 59.1 | 76.3 | – | –
15.6 | 0.82 | 95 to 96 | CSc1ncc(C2SCC(=O)N2c2ccc(Cl)cc2)n1Cc1ccccc1 (centres unmarked) [2a, 2-(1-benzyl-2-methylthio-5-imidazolyl)-3-(4-chloro-phenyl)-1,3-thiazolidin-4-ones] | 106 | 35 | – | 121 | 68.3 | 15.1
– | – | 94 to 95 | CSc1ncc(C2SCC(=O)N2c2ccc(Cl)cc2)n1Cc1ccc(F)cc1 (centres unmarked) [2c, 2-[1-(4-fluorobenzyl)-2-methylthio-5-imidazolyl]-3-(4-chlorophenyl)-1,3-thiazolidin-4-ones] | – | – | – | – | 64 | 8.76
– | 0.71 | 97 to 98 | CCSc1ncc(C2SCC(=O)N2c2ccc(Cl)cc2)n1Cc1ccccc1 (centres unmarked) [2b, 2-(1-benzyl-2-ethylthio-5-imidazolyl)-3-(4-chloro-phenyl)-1,3-thiazolidin-4-one] | 82.3 | 54.4 | 45.9 | 110 | 73.6 | 39.9
